Measured values from patent US20190209506A1, “METHODS OF REDUCING OR PREVENTING OXIDATION OF LDL OR LIPID MEMBRANES IN A SUBJECT IN NEED THEREOF” (Amarin Pharmaceuticals Ireland Limited, priority 2018, published 2019).

Key:
human LDL = experiment: Copper-induced oxidation of unfractionated LDL, TBARS (Example 7); assay type: biochemical; conditions: 1 hour
Description: An experiment to study the antioxidant effect of EPA in LDL and small dense LDL (“sdLDL”) was performed. LDL and sdLDL were isolated from the plasma of healthy volunteers by iodixanol density gradient ultracentrifugation, and adjusted to a final apolipoprotein concentration of 2 mg/mL. […] Vitamin E was also incubated with sample aliquots as a positive control.

human sdLDL = experiment: Copper-induced sdLDL oxidation, TBARS (Example 7); assay type: biochemical
Description: An experiment to study the antioxidant effect of EPA in LDL and small dense LDL (“sdLDL”) was performed. LDL and sdLDL were isolated from the plasma of healthy volunteers by iodixanol density gradient ultracentrifugation, and adjusted to a final apolipoprotein concentration of 2 mg/mL. […] Lipid oxidation was initiated with 10 μM CuSO4 and monitored by the colorimetric detection of thiobarbituric acid reactive substances (TBARS) for 1 hr. Vitamin E was also incubated with sample aliquots as a positive control.

[1] = tested on: rat renal glomerular endothelial cells; experiment: NO and ONOO^− release ex vivo from glomerular endothelial cells exposed to oxLDL and high glucose (Example 13); assay type: cell-based; conditions: 10.0 μM, 1 hr; oxLDL 11 mg/dL and glucose 300 mg/dL; vs vehicle
Description: Healthy male Wistar Kyoto (WKY) rats, aged 7-9 weeks and weighing 250±20 g, were obtained from inbred colonies (National Institutes of Health, Bethesda, Md.). Animals were housed in a controlled environment that provided food and water ad libitum prior to the study. […] Animals were sacrificed and tissue samples obtained immediately for experimentation. All procedures were conducted in accordance with standard Institutional Animal Care and Use Committee guidelines and conformed to the Guide for the Care and Use of Laboratory Animals published by the US National Institutes of Health.
Immediately after sacrificing the rats, kidneys were removed, cut into 100 μm sections and transferred to a separate organ chamber containing Dulbecco's phosphate buffered saline ([…]) and […] at pH 7.4. […]
The NO/ONOO− nanosensor was positioned near the surface of the endothelial cells using a computer-controlled M3301 micromanipulator (x-y-z resolution of 0.2 μm) and microscope (both from World Precision Instruments, Berlin, Germany) fitted with a CD camera. Each analyte was measured from amperograms and standard calibration curves collected under maximum current. […] Changes in current (proportional to the molar concentrations of NO or ONOO^− released) were monitored continuously immediately following CaI stimulation.

[2] = Glucose-induced membrane lipid peroxidation (LOOH, CHOD-iodide assay) in DLPC/cholesterol vesicles (Examples 4, 5); assay type: biochemical; conditions: 1.0 μM; glucose 200 mg/dL; 96 hours
Description: All test compounds were further diluted in ethanol or aqueous buffer as needed. Glucose was prepared in saline buffer (0.5 mM HEPES, 154 mM NaCl, pH 7.3) at 11.0 mM (200 mg/dL). CHOD-iodide color reagent (stock) was prepared, with slight modification, as described by from El-Saadani et al. (J. […] Samples were shell-dried under nitrogen gas and placed under vacuum for 1 h to remove residual solvent. […] Lipid suspensions were then vortexed for 3 min at ambient temperature to form MLVs. All MLV samples were subjected to time-dependent autoxidation by incubating at 37° C. in an uncovered, shaking water bath. This method allows lipid peroxidation to occur gradually without requiring the use of exogenous initiators. Small aliquots (5-100 μL) of each sample were removed, immediately following MLV preparation (0 hour) and after exposing samples to oxidative conditions for 72 or 96 hour, and combined with 1.0 mL of activated CHOD-iodide color reagent. Aliquot volume was reduced with each successive time point to ensure that spectrophotometric readings were within the optimal adsorption range. Test samples were covered and incubated in darkness at room temperature for at least 4 hr. Sample absorbances were then measured against a CHOD blank at 365 nm using a Beckman DU-640 spectrophotometer. The CHOD colorimetric assay is based on the oxidation of iodide (I^−) by lipid hydroperoxide (LOOH) to form triiodide the quantity of which is directly proportional to the amount of LOOH present in the lipid sample. The molar absorptivity (ε) of I3^− is 2.46×10^4 M^−1 cm^−1 at 365 nm. […] All MLV samples were subjected to time-dependent autoxidation by incubating at 37° C. in an uncovered, shaking water bath. This method allows lipid peroxidation to occur gradually without requiring the use of exogenous initiators. Small aliquots (5-100 μL) of each sample were removed, immediately following MLV preparation (0 hr) and after exposing samples to oxidative conditions for 72 or 96 hr, and combined with 1.0 mL of activated CHOD-iodide color reagent. Aliquot volume was reduced with each successive time point to ensure that spectrophotometric readings were within the optimal adsorption range. Test samples were covered and incubated in darkness at room temperature for at least 4 hr. Sample absorbances were then measured against a CHOD blank at 365 nm using a Beckman DU-640 spectrophotometer. […] The molar absorptivity (ε) of I3^− is 2.46×10^4 M^−1 cm^−1 at 365 nm.

HMG-CoA reductase = target: T1, HMG-CoA reductase (Homo sapiens, UniProt P04035); conditions: metabolized by hepatic cytochrome P450; cited from earlier work
T1 sequence (P04035 1-888): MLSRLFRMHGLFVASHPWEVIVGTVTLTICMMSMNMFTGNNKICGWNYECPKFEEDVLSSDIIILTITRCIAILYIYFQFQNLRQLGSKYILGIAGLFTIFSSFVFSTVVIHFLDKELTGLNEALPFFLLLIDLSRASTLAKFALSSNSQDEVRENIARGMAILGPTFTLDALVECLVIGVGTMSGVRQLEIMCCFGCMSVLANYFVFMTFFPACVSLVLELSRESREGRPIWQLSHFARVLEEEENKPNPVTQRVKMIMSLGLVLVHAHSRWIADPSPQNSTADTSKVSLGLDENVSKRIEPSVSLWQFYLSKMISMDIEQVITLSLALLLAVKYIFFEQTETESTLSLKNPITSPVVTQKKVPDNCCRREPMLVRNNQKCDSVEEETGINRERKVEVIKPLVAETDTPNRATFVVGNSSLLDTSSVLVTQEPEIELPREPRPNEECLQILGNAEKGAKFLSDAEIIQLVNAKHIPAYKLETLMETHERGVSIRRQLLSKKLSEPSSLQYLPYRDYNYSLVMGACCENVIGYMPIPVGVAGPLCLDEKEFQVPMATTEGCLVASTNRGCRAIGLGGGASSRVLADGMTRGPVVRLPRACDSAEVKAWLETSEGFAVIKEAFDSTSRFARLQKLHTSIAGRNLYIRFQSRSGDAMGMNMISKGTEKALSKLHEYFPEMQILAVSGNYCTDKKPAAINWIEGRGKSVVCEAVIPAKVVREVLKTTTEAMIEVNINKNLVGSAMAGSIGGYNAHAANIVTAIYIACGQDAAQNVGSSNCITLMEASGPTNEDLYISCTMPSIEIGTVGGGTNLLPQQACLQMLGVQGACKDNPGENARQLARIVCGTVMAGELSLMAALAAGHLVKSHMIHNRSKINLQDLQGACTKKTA

SMILES: CC(C)c1c(C(=O)Nc2ccccc2O)c(-c2ccccc2)c(-c2ccc(F)cc2)n1CC[C@@H](O)C[C@@H](O)CC(=O)O [ATM, Atorvastatin ortho- (o-) hydroxy (active) metabolite]
- effect on unfractionated LDL oxidation, dose dependence (human LDL): significant and dose-dependent inhibition of unfractionated LDL oxidation beginning at 1.0 μM
- inhibition of sdLDL oxidation (human sdLDL; 0.5 μM, 1 hr): 5±5%
- inhibition of sdLDL oxidation (human sdLDL; 1.0 μM, 1 hr, vs vehicle): 18±5%
- inhibition of sdLDL oxidation (human sdLDL; highest dose, 1 hr): 90±2%
- increase of NO release [1]: 205%
- reduction of ONOO^− release [1]: 25%
- antioxidant effect (LOOH formation) [2]: separate and potent antioxidant effects

SMILES: CC(C)c1c(C(=O)Nc2ccccc2)c(-c2ccccc2)c(-c2ccc(F)cc2)n1CC[C@@H](O)C[C@@H](O)CC(=O)O [atorvastatin]
- share of circulating HMG-CoA reductase inhibitory activity accounted for by active metabolites (HMG-CoA reductase): approximately 70%
- effect on unfractionated LDL oxidation (human LDL; 10 μM): did not have any significant antioxidant activity
- effect on sdLDL oxidation compared to vehicle-treated controls (human sdLDL; 10 μM, 1 hour): did not have any significant antioxidant activity
- inhibition of TBARS formation / sdLDL oxidation (human sdLDL; 10 μM, 1 hr, vs vehicle): 0.1±7%
